US8987195B2 (priority 2012, dated 2015)
Like-named read-outs stand apart in the source and are kept apart here.

How the values were obtained:
[1] = biological target: HCV NS3/4A protease A156T mutant (Hepatitis C virus genotype 1b, UniProt P26663, A1182T); experiment: HCV NS3/4A protease time-resolved fluorescence (TRF) assay, Ki against A156T mutant; type: biochemical; conditions: NS3/4A protease TRF assay, A156T mutant enzyme 0.4 nM, read-out: IC50 [gt-1b A156T]
Procedure, shortened: (§1)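 Time-resolved fluorescence readout of NS3/4A cleavage of 25 nM europium-labelled peptide over 2.5 h at room temperature, enzyme levels set for signal/background 10–30 (0.2, 0.4, 0.025 nM for 1b, A156T, 3a). Ki by IC50=Ki(1+[S]/KM).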

[2] = biological target: HCV NS3/4A protease genotype 1b (Hepatitis C virus genotype 1b, UniProt P26663); experiment: HCV NS3/4A protease time-resolved fluorescence (TRF) assay, Ki against genotype 1b; type: biochemical; conditions: IC50 [gt-1b], NS3/4A protease TRF assay, genotype 1b enzyme 0.2 nM
Procedure, shortened: as §1

[3] = biological target: HCV NS3/4A protease genotype 3a (Hepatitis C virus genotype 3a, UniProt Q81495); experiment: HCV NS3/4A protease time-resolved fluorescence (TRF) assay, Ki against genotype 3a; type: biochemical
Procedure, shortened: as §1

HCV genotype 1b replicon = experiment: HCV replicon assay, genotype 1b replicon EC50; type: cell-based, Hepatitis C virus; conditions: Hepatitis C virus, HCV replicon, genotype 1b, read-out: EC50 [gt-1b]
Procedure, shortened: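 Potency comes from a four-parameter fit of signal as percent of DMSO control. Replicon-bearing cells were treated 24-48 hours with a compound dilution series in absence of G418, and replicon RNA was quantified normalized to cyclophilin A RNA, or luciferase read.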

Structure (SMILES) | IC50 [1] [nM] | IC50 [2] [nM] | IC50 [3] [nM] | EC50 (HCV genotype 1b replicon) [nM] | IC50 ([1]; K+ salt) [nM] | IC50 ([2]; K+ salt) [nM] | EC50 (HCV genotype 1b replicon; K+ salt) [nM]
CCc1nc2ccc(OC)cc2c2c1O[C@]1(CC2)C[C@H]2C(=O)N[C@]3(C(=O)NS(=O)(=O)C4(C)CC4)C[C@H]3/C=C\CCCCC[C@H](NC(=O)c3cc(C)cs3)C(=O)N2C1 [Example 483, (2R,6S,12Z,13aS,14aR,16aS)-5′-ethyl-9′-methoxy-N-[(1-methylcyclopropyl)sulfonyl]-6-{[(4-methylthiophen-2-yl)carbonyl]amino}-5,16-dioxo-1,1′,2′,6,7,8,9,10,11,13a,14,15,16,16a-tetradecahydrospiro[cyclopropa[e]pyrrolo[1,2-a][1,4]diazacyclopentadecine-2,3′-pyrano[2,3-c]quinoline]-14a(5H)-carboxamide] | 0.0969 | 0.008 | 0.667 | 0.438 |  |  | 
CCc1nc2ccc(OCCCOC)cc2c2c1O[C@]1(CC2)C[C@H]2C(=O)N[C@]3(C(=O)NS(=O)(=O)C4(C)CC4)C[C@H]3/C=C\CCCCC[C@H](NC(=O)OCC(C)C)C(=O)N2C1 [Example 484, 2-methylpropyl [(2R,6S,12Z,13aS,14aR,16aS)-5′-ethyl-9′-(3-methoxypropoxy)-14a-{[(1-methylcyclopropyl)sulfonyl]carbamoyl}-5,16-dioxo-1,1′,2′,5,6,7,8,9,10,11,13a,14,14a,15,16,16a-hexadecahydrospiro[cyclopropa[e]pyrrolo[1,2-a][1,4]diazacyclopentadecine-2,3′-pyrano[2,3-c]quinolin]-6-yl]carbamate] |  |  | 0.628 |  | 0.164 | 0.003 | 0.357
CCc1nc2ccc(OCCCOC)cc2c2c1O[C@]1(CC2)C[C@H]2C(=O)N[C@]3(C(=O)NS(=O)(=O)C4(C)CC4)C[C@H]3/C=C\CCCCC[C@H](NC(=O)OCC(C)(C)C)C(=O)N2C1 [Example 488, 2,2-dimethylpropyl [(2R,6S,12Z,13aS,14aR,16aS)-5′-ethyl-9′-(3-methoxypropoxy)-14a-{[(1-methylcyclopropyl)sulfonyl]carbamoyl}-5,16-dioxo-1,1′,2′,5,6,7,8,9,10,11,13a,14,14a,15,16,16a-hexadecahydrospiro[cyclopropa[e]pyrrolo[1,2-a][1,4]diazacyclopentadecine-2,3′-pyrano[2,3-c]quinolin]-6-yl]carbamate] |  |  | 0.486 |  | 0.136 | 0.004 | 0.412
CC1(S(=O)(=O)NC(=O)[C@@]23C[C@H]2/C=C\CCCCC[C@H](NC(=O)OC2C[C@@H]4C[C@@H]4C2)C(=O)N2C[C@@]4(CCc5c(c(C(F)(F)F)nc6ccc(OCF)cc56)O4)C[C@H]2C(=O)N3)CC1 (stereo partly drawn) [Example 501, (1R,5S)-bicyclo[3.1.0]hex-3-yl [(2R,6S,12Z,13aS,14aR,16aS)-9′-(fluoromethoxy)-14a-{[(1-methylcyclopropyl)sulfonyl]carbamoyl}-5,16-dioxo-5′-(trifluoromethyl)-1,1′,2′,5,6,7,8,9,10,11,13a,14,14a,15,16,16a-hexadecahydrospiro[cyclopropa[e]pyrrolo[1,2-a][1,4]diazacyclopentadecine-2,3′-pyrano[2,3-c]quinolin]-6-yl]carbamate] |  |  | 0.206 |  | 0.6 | 0.004 | 3.7
CCc1nc2ccc(OC)cc2c2c1O[C@]1(CC2)C[C@H]2C(=O)N[C@]3(C(=O)NS(=O)(=O)C4(C)CC4)C[C@H]3/C=C\CCCCC[C@H](NC(=O)O[C@H](C)C3CC3)C(=O)N2C1 [Example 502, (1R)-1-cyclopropylethyl [(2R,6S,12Z,13aS,14aR,16aS)-5′-ethyl-9′-methoxy-14a-{[(1-methylcyclopropyl)sulfonyl]carbamoyl}-5,16-dioxo-1,1′,2′,5,6,7,8,9,10,11,13a,14,14a,15,16,16a-hexadecahydrospiro[cyclopropa[e]pyrrolo[1,2-a][1,4]diazacyclopentadecine-2,3′-pyrano[2,3-c]quinolin]-6-yl]carbamate] | 0.121 | 0.004 | 0.48 | 0.29 |  |  | 
